Measured values as given in patent US9328374B2, “Selective culture medium and method for detecting carbapenem-resistant bacteria in a test sample” (Institut National de la Sante et de la Recherche Medicale …, priority 2011, dated 2016).

Legend:
Experiment in all cases: MIC of imipenem, ertapenem and meropenem
[1] = system: S. typhimurium; assay type: cell-based
[2] = system: P. mirabilis; assay type: cell-based
[3] = system: K. pneumoniae; assay type: cell-based, Klebsiella pneumoniae

Work on `C[C@@H](O)[C@H]1C(=O)N2C(C(=O)O)=C(SCCN=CN)C[C@H]12` [IPM, imipenem] yielded an MIC ([1]; S. typhimurium 1081 (CTX-M-1)) of 0.25 µg/mL, an MIC ([1]; S. typhimurium 1081, CTX-M-1, non-carbapenemase producer) of 0.25 µg/mL and an MIC ([1]; strain S. typhimurium 1081, CTX-M-1, non-carbapenemase producer) of 0.25 µg/mL. The MIC ([2]; P. mirabilis 1031 (CTX-M-14 + TEM-1 + SHV-11)) was 1.5 µg/mL, the MIC ([2]; P. mirabilis 1031, CTX-M-14 + TEM-1 + SHV-11, non-carbapenemase producer) was 1.5 µg/mL and the MIC ([2]; P. mirabilis PMA (ACC-1)) was 0.25 µg/mL. For the same molecule, the MIC ([2]; P. mirabilis PMA, ACC-1, non-carbapenemase producer) was 0.25 µg/mL, the MIC ([3]; K. pneumoniae 1 OMA (NDM-1 + CTX-M-15 + OXA-1 + OXA-9)) was >32 µg/mL and the MIC ([3]; K. pneumoniae 2 OLA (NDM-1 + OXA-1)) was 1.5 µg/mL. The MIC ([3]; K. pneumoniae 7 AFR (NDM-1 + OXA-1 + CTX-M-15 + CMY-6 + TEM-1)) was >32 µg/mL, the MIC ([3]; K. pneumoniae 7AFR, NDM-1 + TEM-1 + CTX-M-15 + CMY-6 + OXA-1) was >32 µg/mL and the MIC ([3]; K. pneumoniae 0227, SHV-1, non-carbapenemase producer) was 0.19 µg/mL. It also gave an MIC ([3]; K. pneumoniae 588, KPC-2 + TEM-1 + SHV-11 + OXA-9) of 24 µg/mL, an MIC ([3]; K. pneumoniae 1022, SHV-2a + SHV-28, non-carbapenemase producer) of 0.5 µg/mL and an MIC ([3]; K. pneumoniae 1025 (CTX-M-14 + TEM-1 + SHV-11)) of 0.12 µg/mL. The MIC ([3]; K. pneumoniae 1025, CTX-M-14 + TEM-1 + SHV-11, non-carbapenemase producer) was 0.12 µg/mL, the MIC ([3]; K. pneumoniae 2303, KPC-2 + SHV-11) was >32 µg/mL and the MIC ([3]; K. pneumoniae 6642 GEN (NDM-1 + CTX-M-15 + OXA-1 + OXA-10)) was 1 µg/mL. For the same molecule, the MIC ([3]; K. pneumoniae 6642 GEN, NDM-1 + CTX-M-15 + OXA-1 + OXA-10) was 1 µg/mL, the MIC ([3]; K. pneumoniae 6759 GEN (NDM-1 + CTX-M-15 + OXA-1 + OXA-9 + OXA-10 + CMY16)) was 12 µg/mL and the MIC ([3]; K. pneumoniae 6759 GEN, NDM-1 + CTX-M-15 + CMY-16 + OXA-1 + OXA-9 + OXA-10) was 12 µg/mL. The MIC ([3]; K. pneumoniae 7725 (SHV-1)) was 0.19 µg/mL, the MIC ([3]; K. pneumoniae 7725, SHV-1, non-carbapenemase producer) was 0.19 µg/mL and the MIC ([3]; K. pneumoniae 10112, CTX-M-15 + TEM-1 + SHV-11, non-carbapenemase producer) was 0.5 µg/mL. The MIC ([3]; K. pneumoniae 0404020, VIM-1+ SHV-5) was >32 µg/mL, the MIC ([3]; K. pneumoniae 0404024, VIM-1) was >32 µg/mL and the MIC ([3]; K. pneumoniae 0511135, VIM-1+ SHV-12) was >32 µg/mL. For the same molecule, the MIC ([3]; K. pneumoniae 648236 (SHV-2a)) was 0.25 µg/mL, the MIC ([3]; K. pneumoniae 648236, SHV-2a, non-carbapenemase producer, porin deficiency) was 0.25 µg/mL and the MIC ([3]; K. pneumoniae 0709121, IMP-1) was 1.5 µg/mL. It also gave an MIC ([3]; K. pneumoniae 0709124, IMP-1 + TEM-15) of 8 µg/mL, an MIC ([3]; K. pneumoniae 0709125, IMP-1 + TEM-1 + SHV-12) of 1.5 µg/mL and an MIC ([3]; K. pneumoniae 0709127, IMP-1 + TEM-1) of 0.5 µg/mL. The MIC ([3]; K. pneumoniae A28006, KPC-2 + TEM-1 + CTX-M-2 + SHV-11) was 16 µg/mL, the MIC ([3]; K. pneumoniae A33504, KPC-2 + TEM-1 + SHV-11 + CTX-M-2 + OXA-9) was >32 µg/mL and the MIC ([3]; K. pneumoniae AEL, OXA-48 + CTX-M-15 + SHV-28 + OXA-1) was 0.5 µg/mL. The MIC ([3]; K. pneumoniae ALE (CTX-M-15 + SHV-1)) was 1 µg/mL, the MIC ([3]; K. pneumoniae ALE, CTX-M-15 + SHV-1, non-carbapenemase producer, porin deficiency) was 1 µg/mL and the MIC ([3]; K. pneumoniae AMS (OXA-48 + TEM-1 + CTX-M-15 + OXA-1)) was 0.5 µg/mL. The MIC ([3]; K. pneumoniae AMS, OXA-48 + TEM-1 + CTX-M-15 + OXA-1) was 0.5 µg/mL, the MIC ([3]; K. pneumoniae BAJ (OXA-48 + TEM-1 + CTX-M-15 + SHV-28)) was 0.5 µg/mL and the MIC ([3]; K. pneumoniae BAJ, OXA-48 + TEM-1 + CTX-M-15 + SHV-28) was 0.5 µg/mL. It also gave an MIC ([3]; K. pneumoniae BED (CTX-M-15 + TEM-1 + SHV-1; Table 8: SHV-11)) of 1.5 µg/mL, an MIC ([3]; K. pneumoniae BED, CTX-M-15 + TEM-1 + SHV-11, non-carbapenemase producer, porin deficiency) of 1.5 µg/mL and an MIC ([3]; K. pneumoniae BEL (OXA-48)) of 1 µg/mL. For the same molecule, the MIC ([3]; K. pneumoniae BEL, OXA-48) was 1 µg/mL, the MIC ([3]; K. pneumoniae BEN (OXA-48 + TEM-1 + CTX-M-15 + SHV-28)) was 0.38 µg/mL and the MIC ([3]; K. pneumoniae BEN, OXA-48 + TEM-1 + CTX-M-15 + SHV-28) was 0.38 µg/mL. It also gave an MIC ([3]; K. pneumoniae BER (TEM-1 + SHV-28)) of 1 µg/mL, an MIC ([3]; K. pneumoniae BER, SHV-28 + TEM-1, non-carbapenemase producer, porin deficiency) of 1 µg/mL and an MIC ([3]; K. pneumoniae BEY (OXA-48 + CTX-M-15 + TEM-1)) of 0.38 µg/mL. It also gave an MIC ([3]; K. pneumoniae BEY, OXA-48 + TEM-1 + CTX-M-15) of 0.38 µg/mL, an MIC ([3]; K. pneumoniae BIC (OXA-48)) of 0.5 µg/mL and an MIC ([3]; K. pneumoniae BIC, OXA-48) of 0.5 µg/mL. It also gave an MIC ([3]; K. pneumoniae BOU, OXA-48) of 0.38 µg/mL, an MIC ([3]; K. pneumoniae CHA (OXA-48 + TEM-1)) of 0.38 µg/mL and an MIC ([3]; K. pneumoniae CHA, OXA-48 + TEM-1) of 0.38 µg/mL. It also gave an MIC ([3]; K. pneumoniae COL (KPC-2 + TEM-1 + SHV-1 + CTX-M-15)) of 4 µg/mL, an MIC ([3]; K. pneumoniae COO (CTX-M-15 + SHV28)) of 8 µg/mL and an MIC ([3]; K. pneumoniae COO, CTX-M-15 + SHV-28, non-carbapenemase producer, porin deficiency) of 8 µg/mL. The MIC ([3]; K. pneumoniae DAL (OXA-48 + CTX-M-15 + TEM-1)) was 0.38 µg/mL, the MIC ([3]; K. pneumoniae DAL, OXA-48 + TEM-1 + CTX-M-15) was 0.38 µg/mL and the MIC ([3]; K. pneumoniae DIA, OXA-48 + TEM-1b + CTX-M-15 + SHV-11 + OXA-1) was >32 µg/mL. The MIC ([3]; K. pneumoniae DUW, OXA-48 + TEM-1 + CTX-M-15 + SHV-28) was 32 µg/mL, the MIC ([3]; K. pneumoniae EGY (OXA-48 + CTX-M-15)) was 2 µg/mL and the MIC ([3]; K. pneumoniae EGY, OXA-48 + CTX-M-15) was 2 µg/mL. The MIC ([3]; K. pneumoniae ELK (OXA-48 + TEM-1 + CTX-M-15 + SHV-11)) was 0.5 µg/mL, the MIC ([3]; K. pneumoniae ELK, OXA-48 + TEM-1 + CTX-M-15 + SHV-11) was 0.5 µg/mL and the MIC ([3]; K. pneumoniae ENN, VIM-1+ SHV-5) was 0.5 µg/mL. It also gave an MIC ([3]; K. pneumoniae FOS (CTX-M-15 + TEM-1 + SHV-11)) of 6 µg/mL, an MIC ([3]; K. pneumoniae FOS, CTX-M-15 + TEM-1 + SHV-11, non-carbapenemase producer, porin deficiency) of 6 µg/mL and an MIC ([3]; K. pneumoniae GES, KPC-2 + TEM-1 + SHV-11) of 6 µg/mL. The MIC ([3]; K. pneumoniae HOL (OXA-181 + CTX-M-15)) was 1 µg/mL, the MIC ([3]; K. pneumoniae HOL, OXA-181 + CTX-M-15) was 1 µg/mL and the MIC ([3]; K. pneumoniae HPA, OXA-48 + TEM-1 + CTX-M-15 + OXA-1) was 1.5 µg/mL. It also gave an MIC ([3]; K. pneumoniae IND (NDM-1 + OXA-1 + CTX-M-15)) of 1 µg/mL and an MIC ([3]; K. pneumoniae KAM, KPC-3 + TEM-1 + SHV-11) of 8 µg/mL.
